Values joined by “and” are separate entries in the source; they are usually repeats but may differ in a detail not shown here. Identical values can stand only once. Strand notation (5' to 3'): a small letter for the sugar, then the base; units joined by * are phosphorothioate-linked, units joined directly phosphodiester-linked; [ ] holds rarer units or linkages, { } end groups; capitals alone tell only the bases. e = 2'-O-(2-methoxyethyl) (MOE); [5mC] = 5-methylcytosine; d = 2'-deoxy (DNA)
Assays:
human SMAD7 mRNA [1] = experiment: Antisense inhibition of human SMAD7 mRNA expression in Hep3B cells by 5-10-5 MOE gapmers, single concentration, electroporation, RT-PCR (Example 1, Study 1 and 2); assay type: cell-based
In short: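 Hep3B cells (20,000/well) electroporated with 5-10-5 MOE gapmer at 5,000 nM or 15,000 nM for approximately 24 h. SMAD7 mRNA quantified by real-time PCR with primer probe set RTS5062 and normalized to RIBOGREEN total RNA. Values are percent inhibition relative to untreated controls.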

human SMAD7 mRNA [2] = experiment: Dose-dependent inhibition of human SMAD7 mRNA expression in Hep3B cells (Example 3, Study 1 and 2); assay type: cell-based; details: electroporation; for % inhibition of SMAD7 mRNA expression: approximately 16 hours; for IC50: Study 1 (312.5-20000 nM)
In short: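 Hep3B cells, 20,000 per well, electroporated with antisense oligonucleotide at 0.31, 1.25, 5.00 or 20.00 μM (first series) or 0.74, 2.22, 6.67 or 20.00 μM (second series). After ~16 h, SMAD7 mRNA measured by RT-qPCR (RTS5062), normalised to RIBOGREEN total RNA. Percent inhibition vs untreated cells; IC50 derived.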

[3] = Study 2, electroporation with 15,000 nM antisense oligonucleotide, 5-10-5 MOE gapmers targeting SEQ ID NO: 1 and 2
[4] = 312.5 nM, Study 1, relative to untreated control cells
[5] = electroporation with 15,000 nM antisense oligonucleotide (Study 2), 5-10-5 MOE gapmers targeting SEQ ID NO: 1 and 2
[6] = electroporation, 15,000 nM, approximately 24 hours, relative to untreated control cells, gapmers targeting SEQ ID NO: 1 and 2
[7] = electroporation, 15,000 nM antisense oligonucleotide (Study 2), 5-10-5 MOE gapmers targeting SEQ ID NO: 1 and 2

| Substance | % inhibition of SMAD7 mRNA expression (human SMAD7 mRNA [1]; [3]) [%] | % inhibition of SMAD7 mRNA expression (human SMAD7 mRNA [2]; [4]) [%] | % inhibition of SMAD7 mRNA expression (human SMAD7 mRNA [2]; 1250.0 nM, Study 1) [%] | % inhibition of SMAD7 mRNA expression (human SMAD7 mRNA [2]; 5000.0 nM, Study 1) [%] | % inhibition of SMAD7 mRNA expression (human SMAD7 mRNA [2]; 20000.0 nM, Study 1) [%] | IC50 (human SMAD7 mRNA [2]) | % inhibition of SMAD7 mRNA expression (human SMAD7 mRNA [1]; [5]) [%] | % Inhibition of SMAD7 mRNA (human SMAD7 mRNA [1]; [5]) [%] | % inhibition of SMAD7 mRNA expression (human SMAD7 mRNA [1]; [6]) [%] | % inhibition of SMAD7 mRNA expression (human SMAD7 mRNA [1]; [7]) [%] | % Inhibition (human SMAD7 mRNA [1]; [3]) [%] | % inhibition of SMAD7 mRNA expression (human SMAD7 mRNA [1]; electroporation, 5,000 nM, approximately 24 hours, relative to untreated control cells, gapmers targeting SEQ ID NO: 1 and 2) [%] |
| --- | --- | --- | --- | --- | --- | --- | --- | --- | --- | --- | --- | --- |
| 771583 (antisense eT*eG*e[5mC]*eT*e[5mC]*d[5mC]*dT*dG*dG*d[5mC]*dA*dG*d[5mC]*dT*dG*e[5mC]*eT*eG*eG*eG) [compound 771583] | 57 | 0 | 15 | 36 | 59 | 10 µM |  |  |  |  |  |  |
| 771610 (antisense eA*e[5mC]*e[5mC]*eT*eG*dA*dT*dG*dT*d[5mC]*dA*d[5mC]*d[5mC]*dA*dG*eG*eG*e[5mC]*eA*eG) [compound 771610] |  | 0 | 0 | 37 | 38 | > 20 µM | 52 |  |  |  |  |  |
| 771632 (antisense eA*eA*eT*e[5mC]*e[5mC]*dT*dT*d[5mC]*dT*dT*dG*dG*dA*dG*dG*eG*eA*eA*eG*eG) [compound 771632] |  | 6 | 6 | 46 | 64 | 9 µM | 31 | 54 |  |  |  |  |
| 771634 (antisense eT*eG*eA*e[5mC]*eG*dG*dA*d[5mC]*d[5mC]*dA*dA*dA*dT*d[5mC]*d[5mC]*eT*eT*e[5mC]*eT*eT) [compound 771634] |  | 0 | 3 | 40 | 36 | > 20 µM | 53 |  |  |  |  |  |
| 771636 (antisense e[5mC]*e[5mC]*eT*eT*eG*dG*dG*dT*dT*dA*dT*dG*dA*d[5mC]*dG*eG*eA*e[5mC]*e[5mC]*eA) [compound 771636] | 0 |  |  |  |  | > 20 µM and 16 µM |  |  |  |  |  |  |
| 771641 (antisense eA*eG*eT*eT*eA*dG*dG*dT*dG*dT*d[5mC]*dA*dG*d[5mC]*d[5mC]*eT*eA*eG*eG*eA) [compound 771641] |  | 3 | 16 | 24 | 50 | > 20 µM | 71 |  |  |  |  |  |
| 771661 (antisense eA*eA*eT*eG*e[5mC]*dT*dT*d[5mC]*dT*d[5mC]*dT*dT*dG*dT*dT*e[5mC]*eA*eT*eT*eT) [compound 771661] |  | 0 | 0 | 6 | 28 | > 20 µM |  |  | 69 |  |  |  |
| 771663 (antisense eT*eT*e[5mC]*e[5mC]*eA*dA*dT*dG*dA*dG*dA*dA*dT*dG*d[5mC]*eT*eT*e[5mC]*eT*e[5mC]) [compound 771663] | 56 | 10 | 24 | 43 | 56 | 11 µM |  |  |  |  |  |  |
| 771670 (antisense eA*eG*eT*e[5mC]*e[5mC]*dT*dT*dT*d[5mC]*dT*d[5mC]*dT*d[5mC]*dT*d[5mC]*eA*eA*eA*eG*e[5mC]) [compound 771670] | 46 | 0 | 0 | 21 | 47 | > 20 µM |  |  |  |  |  |  |
| 771671 (antisense eT*e[5mC]*eA*eG*eG*dA*dG*dT*d[5mC]*d[5mC]*dT*dT*dT*d[5mC]*dT*e[5mC]*eT*e[5mC]*eT*e[5mC]) [compound 771671] | 69 | 0 | 9 | 27 | 49 | > 20 µM |  |  |  |  |  |  |
| 771704 (antisense e[5mC]*eA*eG*eG*eA*dG*dG*dG*dT*dA*dT*dG*d[5mC]*dA*d[5mC]*eA*e[5mC]*eT*e[5mC]*eT) [compound 771704] |  | 14 | 19 | 30 | 54 | > 20 µM |  | 55 |  | 32 |  |  |
| 771705 (antisense eA*eA*eT*eG*e[5mC]*d[5mC]*d[5mC]*dT*dT*dT*dG*dA*dG*dT*dT*eT*e[5mC]*e[5mC]*e[5mC]*e[5mC]) [compound 771705] |  | 0 | 0 | 0 | 9 |  |  |  |  | 52 |  |  |
| 771711 (antisense e[5mC]*eG*e[5mC]*eA*e[5mC]*dT*dT*d[5mC]*dA*d[5mC]*dA*dG*dT*dT*d[5mC]*eA*e[5mC]*eA*eG*eG) [compound 771711] |  | 17 | 25 | 27 | 59 | 18 µM |  |  |  |  | 57 |  |
| 771715 (antisense eA*eG*eT*e[5mC]*eT*d[5mC]*d[5mC]*dG*dA*dG*dT*dT*dA*dT*d[5mC]*e[5mC]*e[5mC]*e[5mC]*eA*eT) [compound 771715] |  | 7 | 18 | 42 | 49 | 17 µM |  |  |  |  | 67 | 68 |
| 771717 (antisense eT*e[5mC]*e[5mC]*e[5mC]*eA*dT*d[5mC]*dT*dA*dT*d[5mC]*dG*dA*dA*dT*e[5mC]*eA*e[5mC]*e[5mC]*e[5mC]) [compound 771717] |  | 2 | 0 | 0 | 30 | > 20 µM |  |  | 57 |  |  |  |
| 771732 (antisense eG*eT*e[5mC]*eA*eT*dG*dT*dG*dA*dA*d[5mC]*dA*d[5mC]*dT*d[5mC]*eT*eT*eT*e[5mC]*eA) [compound 771732] |  | 35 | 24 | 39 | 58 | 15 µM |  |  |  |  | 36 |  |
| 771733 (antisense eT*eG*eA*e[5mC]*eA*dG*d[5mC]*d[5mC]*dA*d[5mC]*dA*dA*dG*dT*d[5mC]*eA*e[5mC]*eA*eA*e[5mC]) [compound 771733] |  | 0 | 0 | 26 | 61 | 16 µM |  |  | 75 |  |  |  |
| 771734 (antisense e[5mC]*eT*e[5mC]*eA*eA*dA*d[5mC]*d[5mC]*dT*dT*dT*d[5mC]*dA*dG*dA*e[5mC]*e[5mC]*eA*eT*e[5mC]) [compound 771734] |  | 0 | 0 | 30 | 53 | > 20 µM |  |  |  |  | 64 |  |
| 771737 (antisense eT*e[5mC]*eA*eA*eA*dT*dG*dA*dA*d[5mC]*d[5mC]*d[5mC]*dT*dG*dG*eT*eT*eA*eT*eA) [compound 771737] |  | 0 | 2 | 0 | 16 |  |  |  |  | 57 |  |  |
| 771742 (antisense eA*eG*eA*e[5mC]*eA*dG*dA*dT*d[5mC]*dT*d[5mC]*dT*dG*dA*dA*eG*eT*e[5mC]*eA*eG) [compound 771742] |  | 0 | 0 | 0 | 23 | > 20 µM |  |  |  |  | 44 |  |
| 771762 (antisense eG*eT*e[5mC]*eA*e[5mC]*d[5mC]*dA*d[5mC]*d[5mC]*dG*dA*dT*dG*d[5mC]*dA*eT*e[5mC]*e[5mC]*eA*eA) [compound 771762] |  | 0 | 0 | 38 | 67 |  |  |  |  | 72 |  |  |
| 771769 (antisense eG*eG*e[5mC]*eT*eG*dG*dG*dA*dA*dT*d[5mC]*dA*dG*dA*dA*e[5mC]*eT*eT*eG*eG) [compound 771769] |  | 10 | 0 | 3 | 53 | > 20 µM |  |  |  | 71 |  |  |

From US10517889B2, “Modulators of SMAD7 expression” (Ionis Pharmaceuticals, Inc., priority 2017, dated 2019)
